# Measurements: patent US5349060A, “Rapamycin 31-ester with N,N-dimethylglycine derivatives useful as immunosuppressive agents” (American Home Products Corporation, priority 1993, dated 1994)
# Where “and” joins values, the source holds several entries; their conditions need not be identical. Equal entries are not always repeated. Structures can show the parent of a compound that is named as a salt.
# Assays:
# [1] = system: cells from the thymus of normal BALB/c mice (thymocyte proliferation); assay: comitogen-induced thymocyte proliferation procedure (LAF); format: cell-based; settings: percent change in counts per minute from non-drug treated controls; for percent change in thymocyte proliferation (counts per minute) versus untreated control at 0.01 µM / percent change in thymocyte proliferation (counts per minute) versus untreated control at 0.1 µM: Mus musculus, 72 h, 72 h culture with PHA and IL-1; for percent change in thymocyte proliferation (counts per minute) versus untreated control at 0.01 µM: read-out: Percentage Inhibition in LAF Assay at 10 nM concentration, Analogs; for percent change in thymocyte proliferation (counts per minute) versus untreated control at 0.1 µM: read-out: Percentage Inhibition in LAF Assay at 100 nM concentration, Analogs
# Protocol: Briefly, cells from the thymus of normal BALB/c mice were cultured for 72 hours with PHA and IL-1 and pulsed with tritiated thymidine during the last six hours. Cells are cultured with and without various concentrations of rapamycin, cyclospofin A, or test compound. Cells are harvested and incorporated; radioactivity is determined. Inhibition of lymphoproliferation is assessed in percent change in counts per minute from non-drug treated controls.
# [2] = system: pinch skin graft from male BALB/c donors transplanted to male C3H recipients; assay: skin graft assay (survival time of pinch skin graft); format: in vivo, mouse (BALB/c donors; settings: intraperitoneally once daily for 6 consecutive days; rejection = 95% area necrosis or suture line off; typically rejected within 6-7 days without immunosuppressive agent
# Protocol: The second in vivo test procedure is designed to determine the survival time of pinch skin graft from male BALB/c donors transplanted to male C3H recipients. The method is adapted from Billingham R. E. and Medawar P. B., J. Exp. Biol. 28:385-402, (1951). Briefly, a pinch skin graft from the donor is grafted on the dorsum of the recipient as an allograft and an isograft is used as control in the same region. The recipients are treated with the test compound, intraperitoneally once daily for 6 consecutive days. Untreated recipients serve as rejection control. The graft is monitored daily and observations are recorded until the graft becomes 95% area necrosis or the suture line is off. This is considered as the rejection day. The graft survival time is one day before the rejection day. The mean graft survival time (number of days ±S.D.) of the drug treatment group is compared with the control group.
# [3] = system: experimental allergic encephalomyelitis model, a model for multiple sclerosis; settings: in vivo; cited from earlier work
# Candida albicans = settings: particularly against Candida albicans, both in vitro and in vivo; cited from earlier work
# [4] = alone or in combination with picibanil; cited from earlier work
# [5] = system: formation of IgE-like antibodies; settings: cited from earlier work
# [6] = system: adjuvant arthritis model, a model for rheumatoid arthritis; settings: in vivo; cited from earlier work
Structure (SMILES),percent change in thymocyte proliferation (counts per minute) versus untreated control at 0.01 µM ([1]; 10 nM) [%],percent change in thymocyte proliferation (counts per minute) versus untreated control at 0.1 µM ([1]; 100 nM) [%],"Skin Graft Assay, Analogs (mean graft survival time, days ± SD) [2] [days]",also measured
"CO[C@H]1C[C@@H]2CC[C@@H](C)[C@@](O)(O2)C(=O)C(=O)N2CCCC[C@H]2C(=O)O[C@H]([C@H](C)C[C@@H]2CC[C@@H](OS(=O)(=O)c3ccc(C)cc3)[C@H](OC)C2)CC(=O)[C@H](C)/C=C(\C)[C@@H](OC(=O)CN(C)C)[C@@H](OC)C(=O)[C@H](C)C[C@H](C)/C=C/C=C/C=C/1C [Example 1, Rapamycin 31-Ester With N,N-dimethylglycine HCl Salt 42-Ester With p-toluenesulfonic Acid]",-6,-74,,
"CO[C@H]1C[C@@H]2CC[C@@H](C)[C@@](O)(O2)C(=O)C(=O)N2CCCC[C@H]2C(=O)O[C@H]([C@H](C)C[C@@H]2CC[C@@H](OC(C)=O)[C@H](OC)C2)CC(=O)[C@H](C)/C=C(\C)[C@@H](OC(=O)CN(C)C)[C@@H](OC)C(=O)[C@H](C)C[C@H](C)/C=C/C=C/C=C/1C [Example 2, Rapamycin 31-Ester With N,N-dimethylglycine HCl Salt 42-Ester With Acetic Acid]",-59,-96,,
"CO[C@H]1C[C@@H]2CC[C@@H](C)[C@@](O)(O2)C(=O)C(=O)N2CCCC[C@H]2C(=O)O[C@H]([C@H](C)C[C@@H]2CC[C@@H](OC(=O)Nc3ccccc3)[C@H](OC)C2)CC(=O)[C@H](C)/C=C(\C)[C@@H](OC(=O)CN(C)C)[C@@H](OC)C(=O)[C@H](C)C[C@H](C)/C=C/C=C/C=C/1C [Example 3, Rapamycin 31-Ester With N,N-dimethylglycine HCl Salt 42-Ester With Phenylcarbamic Acid]",-14,-82,,
"CO[C@H]1C[C@@H]2CC[C@@H](C)[C@@](O)(O2)C(=O)C(=O)N2CCCC[C@H]2C(=O)O[C@H]([C@H](C)C[C@@H]2CC[C@@H](OC(=O)Nc3ccc(F)cc3)[C@H](OC)C2)CC(=O)[C@H](C)/C=C(\C)[C@@H](OC(=O)CN(C)C)[C@@H](OC)C(=O)[C@H](C)C[C@H](C)/C=C/C=C/C=C/1C [Example 4, Rapamycin 31-Ester With N,N-dimethylglycine HCl Salt 41-Ester With 4-fluorophenyl Carbamic Acid]",-38,-94,8.17 ± 0.41,
"CO[C@H]1C[C@@H]2CC[C@@H](C)[C@@](O)(O2)C(=O)C(=O)N2CCCC[C@H]2C(=O)O[C@H]([C@H](C)C[C@@H]2CC[C@@H](OC(=O)NS(=O)(=O)c3ccccc3)[C@H](OC)C2)CC(=O)[C@H](C)/C=C(\C)[C@@H](OC(=O)CN(C)C)[C@@H](OC)C(=O)[C@H](C)C[C@H](C)/C=C/C=C/C=C/1C [Example 5, Rapamycin 31-Ester With N,N-dimethylglycine HCl Salt 42-Ester With Phenylsulfonyl Carbamic Acid]",1,-35,10.00 ± 0.57,
"CO[C@H]1C[C@@H]2CC[C@@H](C)[C@@](O)(O2)C(=O)C(=O)N2CCCC[C@H]2C(=O)O[C@H]([C@H](C)C[C@@H]2CC[C@@H](O)[C@H](OC)C2)CC(=O)[C@H](C)/C=C(\C)[C@@H](OC(=O)CN(C)C)[C@@H](OC)C(O)[C@H](C)C[C@H](C)/C=C/C=C/C=C/1C (stereo partly drawn) [Example 6, 33-Deoxy-33-hydroxyrapamycin 31-Ester With N,N-dimethylglycine HCl Salt]",-13,-76,9.50 ± 1.22,
"CO[C@H]1C[C@@H]2CC[C@@H](C)[C@@](O)(O2)C(=O)C(=O)N2CCCC[C@H]2C(=O)O[C@H]([C@H](C)C[C@@H]2CC[C@@H](OS(=O)(=O)c3cccc4cccnc34)[C@H](OC)C2)CC(=O)[C@H](C)/C=C(\C)[C@@H](OC(=O)CN(C)C)[C@@H](OC)C(=O)[C@H](C)C[C@H](C)/C=C/C=C/C=C/1C [Example 7, Rapamycin 31-Ester With N,N-dimethylglycine 42-Ester With 8-quinolinesulfonic Acid]",-62,-94,9.33 ± 1.22,
"CO[C@H]1C[C@@H]2CC[C@@H](C)[C@@](O)(O2)C(=O)C(=O)N2CCCC[C@H]2C(=O)O[C@H]([C@H](C)C[C@@H]2CC[C@@H](OS(=O)(=O)c3cccc4c(N(C)C)cccc34)[C@H](OC)C2)CC(=O)[C@H](C)/C=C(\C)[C@@H](OC(=O)CN(C)C)[C@@H](OC)C(=O)[C@H](C)C[C@H](C)/C=C/C=C/C=C/1C [Example 8, Rapamycin 31-Ester With N,N-dimethylglycine 42-Ester With 5-(dimethylamino)naphthalene-1-sulfonic Acid]",13,-54,,
CO[C@H]1C[C@@H]2CC[C@@H](C)[C@@](O)(O2)C(=O)C(=O)N2CCCC[C@H]2C(=O)O[C@H]([C@H](C)C[C@@H]2CC[C@@H](O)[C@H](OC)C2)CC(=O)[C@H](C)/C=C(\C)[C@@H](O)[C@@H](OC)C(=O)[C@H](C)C[C@H](C)/C=C/C=C/C=C/1C [Rapamycin],,,,"effect in the experimental allergic encephalomyelitis model [3]: effective; Percentage Inhibition in LAF Assay at 10 nM concentration, Rapamycin ([1]; 10 nM, rapamycin comparator): -85% and -89%; Percentage Inhibition in LAF Assay at 100 nM concentration, Rapamycin ([1]; 100 nM, rapamycin comparator, 0.1 µM): -97% and -96% and -94% and -95%; antifungal activity (Candida albicans): antifungal activity; antitumor activity [4]: antitumor activity; inhibition of the formation of IgE-like antibodies [5]: effectively inhibited; effect in the adjuvant arthritis model [6]: effective"
